Experimental data taken from patent US6645973B1, “Spiro(2h-1-benzopyran-2,4-piperidine)derivatives as glycine transport inhibitors” (Akzo Nobel, priority 1999, dated 2003).
Where a name gives a salt, the structure may show the parent alone.

Structure (SMILES) | melting point
CN(C)c1ccc(C2=CC3(CCN(CC(=O)O)CC3)Oc3ccccc32)cc1F (as salt: hydrochloride) [Example 37, 1′-Carboxymethyl-4-(4-dimethylamino-3-fluorophenyl)spiro[2H-1-benzopyran-2,4′-piperidine]hydrochloride] | 231 to 239 °C
CN(C)c1c(F)cc(C2=CC3(CCN(CC(=O)O)CC3)Oc3ccccc32)cc1F (as salt: hydrochloride) [Example 38, 1′-Carboxymethyl-4-(3,5-difluoro-4-dimethylaminophenyl)spiro[2H-1-benzopyran-2,4′-piperidine]hydrochloride] | 231 to 242 °C
CCOC(=O)CN1CCC2(C=C(c3ccc(CC)cc3)c3ccccc3O2)CC1 [Example 65, Ethyl 4-(4-ethylphenyl)spiro[2H-1-benzopyran-2,4′-piperidine]-1′-acetate] | 119 to 121 °C

Results, then the molecule that gave them:

melting point | Structure (SMILES)
221 to 225 °C | C=CCOc1c(F)cc(C2=CC3(CCN(CC(=O)O)CC3)Oc3ccccc32)cc1F (as salt: hydrochloride) [Example 55, 4-(4-Allyloxy-3,5-difluorophenyl)-1′-carboxymethylspiro[2H-1-benzopyran-2,4′-piperidine]hydrochloride]
211 to 217 °C | C#CCOc1c(F)cc(C2=CC3(CCN(CC(=O)O)CC3)Oc3ccccc32)cc1F (as salt: hydrochloride) [Example 57, 1′-Carboxymethyl-4-(3,5-difluoro-4-propargyloxyphenyl)spiro[2H-1-benzopyran-2,4′-piperidine]hydrochloride]
244 to 251 °C | O=C(O)CN1CCC2(C=C(c3cc(F)c(OCC(F)(F)F)c(F)c3)c3ccccc3O2)CC1 (as salt: hydrochloride) [Example 59, 1′-Carboxymethyl-4-(3,5-difluoro-4-trifluoroethoxyphenyl)spiro[2H-1-benzopyran-2,4′-piperidine]hydrochloride]
